According to the RepoRT retention time repository:

Experiment: RP, Waters ACQUITY UPLC BEH C18, 50 × 2.1 mm, 1.7 µm, 40 °C, 0.6 mL/min, estimated dead time 0.18 min; A: water + 0.1% formic acid, pH 3; B: acetonitrile + 0.1% formic acid, pH 3; gradient (min/%B) 0/5 7/100 8/100
Conditions: stereoisomer not certain

With `CCC(C)C(=O)C1=C(O)C2(CC=C(C)C)CC(CCC(C)(C)NC(C)=O)C(C)(C)C(C(CC(=O)O)c3ccccc3)=C2OC1=O` (stereo unspecified) as the molecule, how does the LC retention time read?
The LC retention time was 4.87 min.

For `C=C1CCC2(OC1)OC1CC3C4C(O)C(=O)C5(O)C(O)C(O)C(O)C(O)C5(C)C4CCC3(C)C1C2C` (stereo unspecified), which LC retention time is on record?
The LC retention time was 3.04 min.

With `COC(=O)C1=CC(O)C23OOC1CC2(C)CCC3C(C)C` (stereo unspecified) as the molecule, how does the LC retention time read?
Its LC retention time is 3.72 min.

For `CC(=O)OC/C=C(\C)C(=O)OC1C(=O)C(CO)=CC(OC(C)=O)C1C(C)C` (stereo unspecified), which LC retention time is on record?
Its LC retention time is 2.84 min.

For `C/C=C1/CN(C)[C@@H]2Cc3c([nH]c4ccccc34)C(=O)C[C@H]1C2C(=O)OC` (stereo partly specified), which LC retention time is on record?
Its LC retention time is 1.4 min.

Which LC retention time does the source give for `COc1c(-c2c(C)cc(OC)c3c(OC)cccc23)c(O)cc2c1C(C)NC(C)C2` (stereo unspecified) here?
The LC retention time was 2.1 min.

With `C[C@@H]1CC2(NCCS2)C(=O)C(O[C@@H]2CC3CCC4C(CC[C@]5(C)[C@@H](C6=CC(=O)OC6)CC[C@]45O)[C@@]3(C=O)C[C@H]2O)O1` (stereo partly specified) as the molecule, how does the LC retention time read?
The LC retention time was 1.89 min.

Which LC retention time does the source give for `C[C@@H]1CC2(NCCS2)[C@]2(O)OC3C[C@@]4(C=O)C(CCC5C4CC[C@]4(C)C(C6=CC(=O)OC6)CC[C@]54O)CC3OC2O1` (stereo partly specified) here?
The LC retention time was 0.611 min.

Which LC retention time does the source give for `COC(=O)C1=C2CCC3=C2C2(C1)C1(C)CCC4C(C)CN(CC1CC3)C42O` (stereo unspecified) here?
Its LC retention time is 2.17 min.

With `CN1CCc2ccc(O)c3c2C1Cc1cc2c(cc1O3)OCO2` (stereo unspecified) as the molecule, how does the LC retention time read?
Its LC retention time is 1.4 min.

With `CC(C)=CC1CC(C2CCC3(C)C4=CCC5C(C)(C)C(=O)CCC5(C)C4CC(C=O)=C23)C(O)O1` (stereo unspecified) as the molecule, how does the LC retention time read?
The LC retention time was 4.03 min.

With `O=C1c2c(O)cc(O)c(C3C(=O)c4c(O)cc(O)cc4OC3c3ccc(O)cc3)c2OC(c2ccc(O)c(O)c2)C1O` (stereo unspecified) as the molecule, how does the LC retention time read?
The LC retention time was 0.319 min.

Which LC retention time does the source give for `COc1cc2ccc(=O)oc2cc1OC` [6,7-dimethoxy-2H-chromen-2-one] here?
Its LC retention time is 1.87 min.

Which LC retention time does the source give for `CCN1CC2(COC(=O)c3ccccc3N)CCC(OC)C34C5CC6C(OC)CC(O)(C5C6OC)C(O)(C(OC)C23)C14` (stereo unspecified) here?
Its LC retention time is 2.4 min.

For `CC1CC2CC3CCCC(=O)N3C3CCC(O)C(C1)N23` (stereo unspecified), which LC retention time is on record?
The LC retention time was 0.92 min.

For `CCC(C)C(=O)C1=C(O)C2(CC=C(C)C)CC(CCC(C)(C)OC(=O)C(F)(F)F)C(C)(C)C(C(CC(=O)O)c3ccccc3)=C2OC1=O` (stereo unspecified), which LC retention time is on record?
The LC retention time was 6.11 min.

Which LC retention time does the source give for `CC(=O)OC1CC(O)C23COCC1(C)C2CC(O)C1(C)C3C(=O)C(O)C2(C)C(c3ccoc3)CC3OC321` (stereo unspecified) here?
The LC retention time was 2.27 min.

For `CCC(O)C(/C=C1\C(=O)C=CC1(O)CCCCCCCC(=O)OC)OC(C)=O` (stereo unspecified), which LC retention time is on record?
The LC retention time was 3.08 min.

With `C/C=C1/CN(C)C[C@H]2Cc3c([nH]c4ccccc34)C(=O)C[C@@H]12` as the molecule, how does the LC retention time read?
Its LC retention time is 1.62 min.

Which LC retention time does the source give for `CCCCCCCCCCC[C@@H]1CCC[C@@H](C)N1` [(2R,6R)-2-methyl-6-undecylpiperidine] here?
The LC retention time was 4.03 min.

Which LC retention time does the source give for `C=C(C(=O)C(O)C(C)C1C(OC(C)=O)CC2(C)C3CCC4C(C)C(=O)C=CC45CC35CCC12C)C(C)C` (stereo unspecified) here?
The LC retention time was 5.56 min.

With `C=CCc1ccc(O)c(-c2cc(CC=C)ccc2O)c1` [5,5'-bis(prop-2-en-1-yl)-[1,1'-biphenyl]-2,2'-diol] as the molecule, how does the LC retention time read?
The LC retention time was 2.78 min.

For `COc1cc2c3cc1Oc1c(cccc1OC)CC1c4c(cc(O)c(OC)c4Oc4cccc(c4)CC3N(C)CC2)CCN1C` (stereo unspecified), which LC retention time is on record?
Its LC retention time is 1.59 min.

With `C=C1COC(=O)C12C[C@@]1(C)C([C@@H](OC(=O)/C=C/SC)CC[C@@H]1C)[C@H]2OC(=O)/C(C)=C\C` (stereo partly specified) as the molecule, how does the LC retention time read?
Its LC retention time is 4.71 min.

Which LC retention time does the source give for `C=C(CO)C(=O)OC1CC(=C)C2CC(=O)C(C)C2C2OC(=O)C(=C)C12` (stereo unspecified) here?
The LC retention time was 3.08 min.

With `CCCCCCCCCCCCO[C@@H]1O[C@@H](C)[C@H](O[C@@H]2O[C@@H](C)[C@H](OC(C)=O)[C@@H](O[C@@H]3O[C@@H](C)[C@H](OC(C)=O)[C@@H](O[C@@H]4O[C@@H](C)[C@H](OC(C)=O)[C@@H](OC(C)=O)[C@H]4O)[C@H]3OC(C)=O)[C@H]2O)[C@@H](O)[C@H]1O` as the molecule, how does the LC retention time read?
The LC retention time was 6.09 min.

With `Oc1ccc(C2Oc3cc(O)cc4c3C2c2cc(O)cc(O)c2C(c2ccc(O)cc2)C2c3cc(O)cc(O)c3C(c3ccc(O)cc3)C42)cc1` (stereo unspecified) as the molecule, how does the LC retention time read?
Its LC retention time is 2.23 min.

With `CC1CC2CC(=O)C3CCCN4CCCC2C34C1` (stereo unspecified) as the molecule, how does the LC retention time read?
The LC retention time was 1.06 min.

With `C=C1[C@@H](O)C[C@H]2[C@](C)(CO)CCC[C@]2(C)[C@H]1CC1C(C)=CCC2C(=O)C(OC)=CC(=O)C21c1cc(=O)c2c(O)cc(O)cc2o1` (stereo partly specified) as the molecule, how does the LC retention time read?
The LC retention time was 3.02 min.

Which LC retention time does the source give for `C=C(C)C12CC(C)C34OC(CCCCCCCCCCCCC)(OC1C3C1OC1(CO)C(O)C1(O)C(=O)C(C)=CC14)O2` (stereo unspecified) here?
The LC retention time was 6.97 min.

Which LC retention time does the source give for `COc1cccc2nc3occc3c(OC)c12` [4,5-dimethoxyfuro[2,3-b]quinoline] here?
The LC retention time was 2.62 min.

For `CC/C=C/CC(O)C(O)/C=C/C(O)CCCCCCCC(=O)O` (stereo unspecified) [(10E,15E)-9,12,13-trihydroxyoctadeca-10,15-dienoic acid], which LC retention time is on record?
The LC retention time was 2.6 min.

For `Cc1ccc2c(c1)C1(C(C)C)CCC2(C)OO1` (stereo unspecified), which LC retention time is on record?
Its LC retention time is 4.34 min.

Which LC retention time does the source give for `CC(C)(O)/C=C/C(=O)[C@](C)(O)[C@H]1[C@H](O)C[C@@]2(C)[C@@H]3CC=C4[C@@H](C[C@H](O)C(=O)C4(C)C)[C@]3(C)C(=O)C[C@]12C` here?
Its LC retention time is 2.77 min.

For `C/C=C1/C2C=C(C)CC1(N)c1ccc(=O)[nH]c1C2` (stereo unspecified), which LC retention time is on record?
The LC retention time was 0.913 min.

Which LC retention time does the source give for `COc1c(CC=C(C)C)c(O)c(CC=C(C)C)c(O)c1C(=O)c1ccc(O)cc1` here?
Its LC retention time is 4.77 min.
